Source: ChEMBL document CHEMBL4665838, “Identification of a novel orally bioavailable NLRP3 inflammasome inhibitor” (Bioorg Med Chem Lett, 2020)
One block for each compound: values may come before it. The source made the active and inactive calls. The rule behind the calls is not given here.

Assays:
[1] = molecular target: T1, NACHT, LRR and PYD domains-containing protein 3 (Homo sapiens, UniProt Q96P20); test: Inhibition of NLRP3 in human THP1 cells assessed as inhibition of IL-1beta production at 1 uM relative to control; assay type: cell-based; details: THP-1
[2] = molecular target: T1, NACHT, LRR and PYD domains-containing protein 3; test: Inhibition of NLRP3 in human THP1 cells assessed as inhibition of IL-1beta production; assay type: cell-based, THP-1
[3] = Terminal half life in C57BL/6 mouse at 1 mg/kg, iv; assay type: ADME, organism-based; details: in vivo, read-out: beta t1/2 (converted)
[4] = MRT in C57BL/6 mouse at 3 mg/kg, po; assay type: ADME, organism-based; details: in vivo
[5] = Aqueous solubility of the compound; assay type: physicochemical; details: buffer
[6] = molecular target: Cytochrome P450 2C9 (Homo sapiens, UniProt P11712); test: Inhibition of CYP2C9 (unknown origin); assay type: ADME
[7] = Initial plasma concentration in C57BL/6 mouse at 1 mg/kg, iv; assay type: ADME, organism-based
[8] = Terminal half life in C57BL/6 mouse at 3 mg/kg, po; assay type: ADME, organism-based; details: in vivo, read-out: beta t1/2 (converted)
[9] = Permeability in human Caco2 cells; assay type: ADME, cell-based; details: caco-2
[10] = Metabolic stability in mouse liver microsomes; assay type: ADME, Microsome
[11] = Metabolic stability in rat liver microsomes; assay type: ADME, Microsome
[12] = Volume of distribution at steady state in C57BL/6 mouse at 1 mg/kg, iv; assay type: ADME, organism-based; details: in vivo, read-out: Vdss
[13] = Metabolic stability in human liver microsomes; assay type: ADME, Microsome
[14] = AUC (0 to t) in C57BL/6 mouse at 3 mg/kg, po; assay type: ADME, organism-based; parameters: dose 3 mg/kg; details: in vivo
[15] = MRT in C57BL/6 mouse at 1 mg/kg, iv; assay type: ADME, organism-based; details: in vivo
[16] = Cmax in C57BL/6 mouse at 3 mg/kg, po; assay type: ADME, organism-based; parameters: route oral, dose 3 mg/kg; details: in vivo
[17] = Tmax in C57BL/6 mouse at 3 mg/kg, po; assay type: ADME, organism-based; details: in vivo
[18] = molecular target: T2, Cytochrome P450 2C8 (Homo sapiens, UniProt P10632); test: Inhibition of CYP2C8 (unknown origin); assay type: ADME
T2 sequence (P10632 whole entry): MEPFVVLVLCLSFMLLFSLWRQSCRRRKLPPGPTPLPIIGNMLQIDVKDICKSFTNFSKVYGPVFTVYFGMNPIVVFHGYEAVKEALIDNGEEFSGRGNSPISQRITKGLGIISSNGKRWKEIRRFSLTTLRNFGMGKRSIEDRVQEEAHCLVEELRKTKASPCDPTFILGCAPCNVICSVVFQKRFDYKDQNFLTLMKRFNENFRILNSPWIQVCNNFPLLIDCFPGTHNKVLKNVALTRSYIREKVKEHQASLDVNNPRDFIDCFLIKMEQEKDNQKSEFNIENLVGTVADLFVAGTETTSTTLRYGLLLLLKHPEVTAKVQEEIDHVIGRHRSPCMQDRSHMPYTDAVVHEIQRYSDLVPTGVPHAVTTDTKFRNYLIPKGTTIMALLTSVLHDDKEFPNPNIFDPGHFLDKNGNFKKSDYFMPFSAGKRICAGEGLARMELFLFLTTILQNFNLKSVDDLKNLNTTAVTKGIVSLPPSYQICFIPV

[19] = molecular target: T3, Interferon-inducible protein AIM2 (Homo sapiens) (UniProt O14862); test: Inhibition of AIM2 inflammasome (unknown origin)
T3 sequence (whole entry): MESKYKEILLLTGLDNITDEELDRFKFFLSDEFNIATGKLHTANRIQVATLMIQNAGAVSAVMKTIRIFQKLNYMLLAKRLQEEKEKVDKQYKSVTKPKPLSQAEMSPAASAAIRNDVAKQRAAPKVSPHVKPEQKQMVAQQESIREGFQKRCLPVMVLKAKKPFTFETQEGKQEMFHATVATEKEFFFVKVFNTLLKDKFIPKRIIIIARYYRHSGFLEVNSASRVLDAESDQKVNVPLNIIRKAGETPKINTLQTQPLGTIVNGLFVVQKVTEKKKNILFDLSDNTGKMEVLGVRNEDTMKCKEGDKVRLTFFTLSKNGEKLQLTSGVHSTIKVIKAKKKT

[20] = Metabolic stability in dog liver microsomes; assay type: ADME, Canis lupus familiaris, Microsome
[21] = AUC (0 to t) in C57BL/6 mouse at 1 mg/kg, iv; assay type: ADME, organism-based; parameters: dose 1 mg/kg; details: in vivo
[22] = Clearance in C57BL/6 mouse at 1 mg/kg, iv; assay type: ADME, organism-based; details: in vivo
[23] = Oral bioavailability in C57BL/6 mouse at 3 mg/kg; assay type: ADME, organism-based; details: in vivo

T1 sequence (Q96P20 whole entry, the tested form may be a part): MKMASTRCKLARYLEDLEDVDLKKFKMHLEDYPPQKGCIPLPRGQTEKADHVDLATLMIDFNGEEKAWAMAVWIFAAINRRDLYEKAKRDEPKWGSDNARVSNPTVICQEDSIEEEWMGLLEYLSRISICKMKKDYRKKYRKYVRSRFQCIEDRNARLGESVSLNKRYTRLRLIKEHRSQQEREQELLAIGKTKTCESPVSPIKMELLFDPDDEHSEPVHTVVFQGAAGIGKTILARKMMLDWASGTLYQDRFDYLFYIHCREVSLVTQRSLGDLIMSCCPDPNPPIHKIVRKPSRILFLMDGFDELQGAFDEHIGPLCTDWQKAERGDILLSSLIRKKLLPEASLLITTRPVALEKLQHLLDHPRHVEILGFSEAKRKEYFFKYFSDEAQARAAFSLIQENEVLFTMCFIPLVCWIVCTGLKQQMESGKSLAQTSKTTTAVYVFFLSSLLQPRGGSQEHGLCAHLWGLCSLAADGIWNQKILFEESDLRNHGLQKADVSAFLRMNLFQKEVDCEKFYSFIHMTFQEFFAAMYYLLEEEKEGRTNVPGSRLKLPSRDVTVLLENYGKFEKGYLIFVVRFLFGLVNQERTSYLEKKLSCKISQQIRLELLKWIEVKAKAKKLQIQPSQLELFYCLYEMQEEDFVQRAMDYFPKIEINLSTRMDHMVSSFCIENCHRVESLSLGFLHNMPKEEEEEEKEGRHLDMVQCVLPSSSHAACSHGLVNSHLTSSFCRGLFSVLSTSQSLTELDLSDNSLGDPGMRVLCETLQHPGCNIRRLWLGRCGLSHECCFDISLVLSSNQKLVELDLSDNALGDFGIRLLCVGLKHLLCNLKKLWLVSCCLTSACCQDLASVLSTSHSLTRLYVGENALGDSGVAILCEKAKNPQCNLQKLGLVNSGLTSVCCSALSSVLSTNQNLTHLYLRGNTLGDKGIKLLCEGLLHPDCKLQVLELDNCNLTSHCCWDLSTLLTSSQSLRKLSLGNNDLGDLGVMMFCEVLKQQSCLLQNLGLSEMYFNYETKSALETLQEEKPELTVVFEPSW
Chain of Cytochrome P450 2C9 (P11712 whole entry): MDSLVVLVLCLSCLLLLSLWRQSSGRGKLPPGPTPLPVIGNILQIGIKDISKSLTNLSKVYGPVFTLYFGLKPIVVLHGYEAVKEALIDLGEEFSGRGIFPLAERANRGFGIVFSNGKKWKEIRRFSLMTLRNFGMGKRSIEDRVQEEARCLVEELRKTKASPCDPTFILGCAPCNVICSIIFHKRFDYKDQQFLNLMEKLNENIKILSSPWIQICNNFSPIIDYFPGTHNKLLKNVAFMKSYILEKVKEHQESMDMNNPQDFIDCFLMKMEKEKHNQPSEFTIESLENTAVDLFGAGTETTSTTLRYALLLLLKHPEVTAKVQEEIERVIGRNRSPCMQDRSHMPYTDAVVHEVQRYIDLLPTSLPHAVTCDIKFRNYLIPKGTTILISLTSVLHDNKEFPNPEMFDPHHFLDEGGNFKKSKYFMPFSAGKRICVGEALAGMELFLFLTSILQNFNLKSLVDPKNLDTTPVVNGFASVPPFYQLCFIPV

- inhibition [1]: < 50%
- IC50 [2]: > 1000 nM
Structure (SMILES): Cc1cc(C)c(C)c(NC(=O)NS(=O)(=O)/C=C/c2nccs2)c1C

- inhibition [1]: < 50%
- IC50 [2]: > 1000 nM
Structure (SMILES): COc1cccc(OC)c1NC(=O)NS(=O)(=O)/C=C/c1nccs1

- inhibition [1]: < 50%
Structure (SMILES): O=C(Nc1c2c(cc3c1OCC3)OCC2)NS(=O)(=O)/C=C/c1nccs1

- half-life [3]: 2.35 h
- MRT [4]: 4.9 h
- solubility [5]: Soluble
- inhibition (INH) [6]: Active
- C0 [7]: 6270 ng/mL
- half-life [8]: 2.86 h
- permeability [9]: Permeable
- Stabilty [10]: Stable
- Stabilty [11]: Stable
- Vd [12]: 0.2 L/kg
- Stabilty [13]: Stable
- AUC(0-t) [14]: 48900 ng·h/mL
- MRT [15]: 3.23 h
- Cmax [16]: 8490 ng/mL
- Tmax [17]: 0.25 h
- inhibition (INH) [18]: Active
- inhibition [19]: inactive
- Stabilty [20]: Stable
- AUC(0-t) [21]: 16500 ng·h/mL
- clearance [22]: 1.01 mL/min/kg
- F [23]: 99%
Structure (SMILES): O=C(Nc1c2c(cc3c1CCC3)CCC2)NS(=O)(=O)/C=C/c1nccs1

- inhibition [1]: < 50%
- IC50 [2]: > 1000 nM
Structure (SMILES): O=C(Nc1c(F)cccc1C(F)(F)F)NS(=O)(=O)/C=C/c1nccs1

Continued, compound first:

Structure (SMILES): O=C(Nc1c2c(cc3c1CCC3)CCC2)NS(=O)(=O)/C=C/c1ccccn1
- IC50 [2]: 1000 nM

Structure (SMILES): O=C(Nc1c2c(cc3c1CCC3)CCC2)NS(=O)(=O)/C=C/c1nc2ccccc2s1
- inhibition [1]: < 50%
- IC50 [2]: > 1000 nM

Structure (SMILES): CC(C)c1cccc(C(C)C)c1NC(=O)NS(=O)(=O)/C=C/c1nccs1
- inhibition [1]: < 50%
- IC50 [2]: > 1000 nM

Structure (SMILES): O=C(Nc1ccccc1C(F)(F)F)NS(=O)(=O)/C=C/c1nccs1
- inhibition [1]: < 50%
- IC50 [2]: > 1000 nM

Structure (SMILES): O=C(Nc1cc(C(F)(F)F)ccc1C(F)(F)F)NS(=O)(=O)/C=C/c1nccs1
- inhibition [1]: < 50%
- IC50 [2]: > 1000 nM

Structure (SMILES): Cc1cnc(/C=C/S(=O)(=O)NC(=O)Nc2c3c(cc4c2CCC4)CCC3)s1
- IC50 [2]: 1060 nM

Structure (SMILES): CC(C)(O)c1coc(S(=O)(=O)NC(=O)Nc2c3c(cc4c2CCC4)CCC3)c1
- half-life [3]: 3.97 h
- MRT [4]: 3.07 h
- C0 [7]: 22200 ng/mL
- half-life [8]: 1.32 h
- Vd [12]: 0.15 L/kg
- AUC(0-t) [14]: 46900 ng·h/mL
- MRT [15]: 3.22 h
- Cmax [16]: 11700 ng/mL
- Tmax [17]: 0.25 h
- AUC(0-t) [21]: 20700 ng·h/mL
- clearance [22]: 0.8 mL/min/kg
- F [23]: 77%
